Data on four compounds can be found in paper PMC2992812 (The Biochemical journal, 2010).

In one test the target is β2AR (Homo sapiens, UniProt P07550). The test is described as follows: Fixed-cell ELISA, PKA site. The test is classed as cell-based. Particulars: 10 μM H89 pre-incubated 30 min and during 5 min with 1 μM isoprenaline. (ELISA stands for enzyme-linked immunosorbent assay.)
The target in test [1] is T1, TRHR (Rattus norvegicus, UniProt Q01717).
T1 sequence (Q01717 1-412): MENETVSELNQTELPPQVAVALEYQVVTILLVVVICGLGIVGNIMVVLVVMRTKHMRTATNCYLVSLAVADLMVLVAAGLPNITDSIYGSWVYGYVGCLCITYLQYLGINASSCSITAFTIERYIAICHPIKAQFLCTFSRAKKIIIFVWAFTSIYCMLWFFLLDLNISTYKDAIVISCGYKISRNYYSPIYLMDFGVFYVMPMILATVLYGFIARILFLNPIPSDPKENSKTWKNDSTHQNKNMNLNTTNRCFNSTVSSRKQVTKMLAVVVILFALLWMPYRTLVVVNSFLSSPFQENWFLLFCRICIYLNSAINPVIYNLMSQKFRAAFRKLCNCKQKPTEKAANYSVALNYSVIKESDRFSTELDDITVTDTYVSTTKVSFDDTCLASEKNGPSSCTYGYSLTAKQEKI
The test can be described thus: Fixed-cell ELISA, GRK site phosphorylation/dephosphorylation of TRHR tail. In kind it is cell-based. The conditions noted are these: EC50 (GRK site phosphorylation).

The target of test [2] is T2, TRHR–β2AR chimaera (Rattus norvegicus, UniProt Q01717).
T2 sequence (Q01717 1-337): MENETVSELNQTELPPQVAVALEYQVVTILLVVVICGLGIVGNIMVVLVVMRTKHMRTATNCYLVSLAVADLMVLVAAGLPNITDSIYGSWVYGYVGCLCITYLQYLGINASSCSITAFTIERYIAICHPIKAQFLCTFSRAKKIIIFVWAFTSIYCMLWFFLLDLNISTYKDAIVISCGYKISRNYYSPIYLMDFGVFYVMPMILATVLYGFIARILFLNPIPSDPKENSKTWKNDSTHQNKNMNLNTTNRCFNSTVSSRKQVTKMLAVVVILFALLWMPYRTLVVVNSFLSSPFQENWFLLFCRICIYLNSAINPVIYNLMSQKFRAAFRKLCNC
The test can be described thus: Receptor internalization assay. Particulars: 100 nM TRH, after 1 h, HEK-293. The test is classed as cell-based, rat TRHR / human β2AR.

The target of test [3] is T1, TRHR. The test can be described thus: Receptor internalization assay. In kind it is cell-based. Particulars: 100 nM TRH, after 1 h, HEK-293.
In the next test the test system is β2AR–TRHR chimaera. The test can be described thus: Receptor internalization assay. In kind it is cell-based, human β2AR / rat TRHR. Particulars: stable HEK-293.
Test [4] addresses T2, TRHR–β2AR chimaera. The test is described as follows: [methyl-3H]TRH binding to live cells. On the set-up: species or system rat TRHR / human β2AR. Particulars: HEK-293, 90 min at 37°C, Scatchard analysis.

pEC50: −log10 of the molar value.

Chain of β2AR (P07550 whole entry): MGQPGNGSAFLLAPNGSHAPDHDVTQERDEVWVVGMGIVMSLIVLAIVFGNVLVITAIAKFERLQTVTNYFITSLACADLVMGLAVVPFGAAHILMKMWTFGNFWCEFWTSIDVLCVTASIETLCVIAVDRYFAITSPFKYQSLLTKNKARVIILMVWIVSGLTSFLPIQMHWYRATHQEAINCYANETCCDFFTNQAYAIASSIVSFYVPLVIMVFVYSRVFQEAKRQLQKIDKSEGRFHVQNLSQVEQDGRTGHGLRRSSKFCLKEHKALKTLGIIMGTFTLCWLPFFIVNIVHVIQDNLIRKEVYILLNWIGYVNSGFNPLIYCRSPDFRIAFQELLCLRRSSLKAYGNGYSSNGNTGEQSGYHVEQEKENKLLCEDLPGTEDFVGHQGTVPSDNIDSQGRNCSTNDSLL

Consider `O=S(=O)(NCCNC/C=C/c1ccc(Br)cc1)c1cccc2cnccc12` [H89], for which the “Inhibition of isoprenaline-stimulated PKA site phosphorylation” value at β2AR stood at 80%.
Compound `NC(=O)[C@@H]1CCCN1C(=O)[C@H](Cc1cnc[nH]1)NC(=O)[C@@H]1CCC(=O)N1` [TRH, thyrotropin-releasing hormone] gave a pEC50 on TRHR [1] of 8.10. The Receptor internalized on TRHR–β2AR chimaera [2] came to 40%; at TRHR [3] it was 60%.
Turning to `CC(C)NCC(O)c1ccc(O)c(O)c1` (stereo not drawn) [isoprenaline], the “More internalization at 1 μM than at 1 nM isoprenaline” value in the test with β2AR–TRHR chimaera was determined as 2 fold.
Turning to [methyl-3H]TRH, at TRHR–β2AR chimaera [4], the “Affinity for [methyl-3H]TRH compared with wild-type TRHR” value is recorded as “reduced affinity”.

As a reminder, the pEC50 is the negative decadic logarithm of the EC50, by convention in mol/L. Lower therefore signals a large EC50.
